We go through 7 compounds from patent publication US6110122A, “Breath test for assessing hepatic function” (priority 1999, dated 2000).

The test system of data set [1] is hepatic mitochondrial function. The data set can be described thus: Effect of alcohol and ASA ingestion on the MBT in healthy controls. In kind it is in vivo, human. The settings on record: for effect of ingestion on MBT (in words): healthy controls. The protocol:
[…] The protocol was then identical to that described previously in Example 1.
The protocol for breath collection was followed as described previously.
The maximum percent dose oxidized per minute was calculated for each substrate following the procedure outlined above in Example 1.

Data set [2] deals with mitochondrial function. The conditions noted are these: therapeutic doses of ASA; cited from earlier work.
Data set [3] has as its system hepatic mitochondrial function. The conditions noted are these: in vivo.
Data set [4] relates to hepatic mitochondrial function. Kind of data set: MBT in patients with liver disease, reproducibility and correlation with Child-Pugh score.
The conditions of data set [5]: cited from earlier work.
The test system of data set [6] is hepatic mitochondria. The conditions noted are these: in vivo; cited from earlier work.
For data set [7] the following is noted: cited from earlier work. The source holds these as a separate data set.
Data set [8] relates to cytosolic function. The settings on record: patients with alcoholic disease; cited from earlier work.

Molecules are shown by their SMILES. Where “and” joins values, the source holds several entries; their conditions need not be identical. Equal values may be shown once.

Regarding `CC(=O)Oc1ccccc1C(=O)O` [ASA, acetylsalicylic acid], the “mean change of MBT from baseline with ASA” value in data set [1] (ASA, n=11, p<0.001) was determined as 36±36%. Moreover, in data set [1], the “effect of ingestion on MBT (in words)” value is listed as “increases”. In data set [1] (individual subject, ASA 30 mg/kg 15 min prior to MBT), the “MBT after ASA ingestion” value was 9.47 % dose/hour and 10.08 % dose/hour and 8.88 % dose/hour and 8.73 % dose/hour and 7.77 % dose/hour and 7.34 % dose/hour and 9.24 % dose/hour and 6.47 % dose/hour and 8.61 % dose/hour and 6.88 % dose/hour and 9.27 % dose/hour. Moreover, the “change detected by ^13 C-KICA test (in words)” value in data set [2] was “mitochondrial changes”.

As for `CSCC[C@H](N)C(=O)O` [methionine, L-1-^13 C-methionine], the “mean difference between MBT test 1 and test 2 (95% CI)” value in data set [3] is listed as -0.073 (-0.475,0.330). For the same compound, in data set [1] (ASA group (n=11) before ASA), the “MBT, Mean T1 and T2 (baseline), group mean” value amounted to 6.17 % dose/hour. Further, the “MBT, Mean T1 and T2 (baseline), group mean” value in data set [1] (alcohol group (n=9) before alcohol) is on record as 7.37 % dose/hour. Besides, the “MBT result for all patients” value in data set [4] (all liver patients) is 2.85 % dose/hour. The “MBT 1” value in data set [4] (cirrhotic patients, individual) was 5.01 % dose/hour and 6.30 % dose/hour and 2.47 % dose/hour and 7.18 % dose/hour and 5.66 % dose/hour and 3.20 % dose/hour and 3.55 % dose/hour and 1.67 % dose/hour and 4.36 % dose/hour and 2.63 % dose/hour and 2.10 % dose/hour and 0.99 % dose/hour and 2.02 % dose/hour and 1.31 % dose/hour and 1.34 % dose/hour and 1.87 % dose/hour and 1.94 % dose/hour and 0.46 % dose/hour and 1.80 % dose/hour and 0.54 % dose/hour and 1.11 % dose/hour. The “MBT Mean” value in data set [4] (cirrhotic patients, individual, mean of MBT 1 and 2) is 4.55 % dose/hour and 6.56 % dose/hour and 2.58 % dose/hour and 6.43 % dose/hour and 5.69 % dose/hour and 3.02 % dose/hour and 3.47 % dose/hour and 2.03 % dose/hour and 4.34 % dose/hour and 2.73 % dose/hour and 2.11 % dose/hour and 1.99 % dose/hour and 2.13 % dose/hour and 1.32 % dose/hour and 1.34 % dose/hour and 1.82 % dose/hour and 2.04 % dose/hour and 0.53 % dose/hour and 1.40 % dose/hour and 0.54 % dose/hour and 0.97 % dose/hour and 1.38 % dose/hour. Further, the “MBT 2” value in data set [4] (cirrhotic patients, individual, repeat within 12 h) is 4.09 % dose/hour and 6.81 % dose/hour and 2.69 % dose/hour and 5.68 % dose/hour and 5.71 % dose/hour and 2.84 % dose/hour and 3.39 % dose/hour and 2.39 % dose/hour and 4.31 % dose/hour and 2.83 % dose/hour and 2.11 % dose/hour and 2.98 % dose/hour and 2.24 % dose/hour and 1.33 % dose/hour and 1.77 % dose/hour and 2.14 % dose/hour and 0.59 % dose/hour and 0.99 % dose/hour and 0.82 % dose/hour and 1.44 % dose/hour. In data set [4] (cirrhotic patients, mean), the “MBT 1, group mean” value worked out at 2.67 % dose/hour and the “MBT 2, group mean” value is given as 2.86 % dose/hour. In addition, in data set [4] (cirrhotic patients, mean of MBT 1 and 2), the “MBT Mean, group mean” value stood at 2.76 % dose/hour. In addition, in data set [4] (patients with CP score A), the “MBT value (mean±SD), CP A” value is recorded as 5.16±1.61 % dose/hour. The “MBT value (mean±SD), CP B” value in data set [4] (patients with CP score B) is 2.81±0.94 % dose/hour. Further, the “MBT value (mean±SD), CP C” value in data set [4] (patients with CP score C) is 1.45±0.55 % dose/hour. In addition, in data set [5] (cirrhotic patients), the “correlation r of methionine clearance with CP score” value is given as -0.80 and the “correlation r of methionine clearance with GEC” value is reported as 0.82. In addition, the “plasma clearance of methionine (in words)” value in data set [5] (intravenous, liver disease / cirrhotic patients vs healthy controls) was “reduced”. Also, the “fasting plasma methionine level (in words)” value in data set [5] (liver disease vs healthy controls) is given as “elevated”.

Turning to `CC(C)CC(=O)C(=O)O` [KICA, ketoisocaproic acid], the “reduction in ^14 CO2 production” value in data set [6] was 75%. Moreover, the “stability in solution (in words)” value in data set [7] was “instability in solution”.

`O=C[C@H](O)[C@@H](O)[C@@H](O)[C@H](O)CO` [galactose]: the “aminopyrine breath test / galactose elimination capacity (in words)” value in data set [8] is reported as “normal”.

Regarding `CCO` [alcohol], the “effect on KICA decarboxylation (in words)” value in data set [6] is “deceases KICA decarboxylation”. Further, the “mean change of MBT from baseline with alcohol” value in data set [1] (alcohol, n=9, p<0.003) was -59±17%. In data set [1], the “effect of ingestion on MBT (in words)” value is on record as “significantly decreases”. The “MBT after alcohol ingestion” value in data set [1] (individual subject, 60 cc vodka 15 min prior to MBT) was 3.36 % dose/hour and 4.54 % dose/hour and 2.76 % dose/hour and 2.22 % dose/hour and 2.97 % dose/hour and 3.39 % dose/hour and 1.86 % dose/hour and 3.52 % dose/hour and 2.45 % dose/hour. In data set [1] (n=9, 60 cc vodka 15 min prior to MBT), the “MBT after alcohol ingestion, group mean” value was 3.01 % dose/hour and 3.01±0.81 % dose/hour.

Regarding `O=C([O-])c1ccccc1O.[Na+]` [sodium salicylate], the “effect on KICA decarboxylation (in words)” value in data set [6] is on record as “increase in KICA decarboxylation”.

As for `Cc1c(N(C)C)c(=O)n(-c2ccccc2)n1C` [aminopyrine], the “aminopyrine breath test / galactose elimination capacity (in words)” value in data set [8] is “normal”.
